Results taken from patent US9132138B2, “Method for the treatment of multiple sclerosis” (CASI Pharmaceuticals, Inc., priority 2012, dated 2015).

How the values were obtained:
Format in all cases: cell-based, C57/BL6 mice
[1] = tested on: purified CD4^+ T cells; test: Proliferation of purified CD4+ T cells by 3H-thymidine incorporation; conditions: 24 hours or 48 hours post-stimulation
Protocol: (§1) FIGS. 2A-2E, show proliferation and activation of T cells are inhibited by 2ME2. FIG. 2A, CD4^+ T cells were pre-treated with the indicated concentrations of 2ME2 and stimulated with plate-bound anti-CD3/28 or PMA/iono. Proliferation was assayed 24 hours (left) or 48 hours (right) later by 3H-thymidine incorporation. FIG. 2B, CD4^+ and CD8^+ T cells were stimulated with anti-CD3/28 in the presence of increasing concentrations of 2ME2. CD25 expression was assessed at 6 hours or 24 hours post-stimulation by flow cytometry. FIG. 2C, Quantification of CD25 expression in purified CD4^+ T cells pre-treated with increasing concentrations of 2ME2, and stimulated with anti CD3/28 or PMA/iono for 6 or 24 hours. […] Viability was determined 24 hours or 48 hours post-stimulation by flow cytometry. […] Proliferation was determined 24 hours or 48 hours later by 3H-thymidine incorporation. […]
(§2) Purified CD4^+ T cells were stimulated with plate-bound anti-CD3 (clone 2C11, BD, 10 ng/ml) plus anti-CD28 (clone 37.51, BD, 100 ng/ml). […] CD25 and CD69 expression was determined by flow cytometry (FACSCanto II, BD) and analyzed using FloJo software (Treestar Inc). Proliferation was assessed by 3H-thymidine incorporation. Viability and upregulation of cell surface markers on activated T cells were assessed by flow cytometry using Annexin V and propridium iodide. […]

[2] = tested on: T cells; test: T cell activation markers CD25 and CD69 by flow cytometry; conditions: anti-CD3/28 or PMA/iono
Protocol: as §1, §2

[3] = tested on: T cells; test: Immunoblotting of signaling proteins in whole cell lysates of stimulated T cells
Protocol: FIG. 4A, purified T cells pre-treated with 2ME2 (50 μM) were stimulated with PMA/iono for the indicated times. Whole cell lysates were subjected to immunoblotting to detect the indicated proteins. FIG. 4B, nuclear lysates were analyzed by EMSA to detect DNA binding to NF-κB or AP-1. FP, free probe. FIG. 4C, purified T cells or B cells were pre-treated with vehicle (−) or 50 μM 2ME2 (+) and were stimulated with PMA/iono for 30 or 60 minutes (left), or with anti-CD3/28 or anti-IgM/CD40 for 24 hours (right). Nuclear fractions of lymphocytes were analyzed by immunoblotting to detect nuclear translocation of NFATc1. Lamin A, nuclear protein loading control. NS; non-specific band. For FIGS. 4A-4C, data are representative of at least two independent experiments. FIG. 4D, stably transfected NFAT and NF-κB Jurkat luciferase reporter cell lines were preincubated with 2ME2 for 30 minutes, and stimulated via crosslinking of anti-CD3/28 antibodies with goat anti-mouse antibodies (GaM). 5 hours later, secreted luciferase activity indicates relative transcriptional activity. Data is reported as normalized luciferase activity and is representative of 3 independent experiments.
Whole cell lysates of stimulated T cells were immunoblotted with Ab recognizing phospho-protein kinase B (AKT) (Ser473), phospho-JNK (Thr183/Tyr185, p46 and p54 Clone G9, antibody “2”), phospho-ERK (Thr202/Tyr204) or phospho-IκBα (Ser32) (NEB); phospho-JNK (Thr183/Tyr185, p54 pSAPK/JNK, clone G7, antibody “1”) or IκBα(C21) (Santa Cruz); β-tubulin (Millipore) or actin (Sigma). Infrared dye-labeled secondary Ab (anti-rabbit Alexa fluor 680, Invitrogen, and anti-mouse IR800, LICOR) were visualized with the Odyssey® scanner (LICOR).

[4] = T cells activated with anti-CD3/28

## COc1cc2c(cc1O)CC[C@@H]1[C@@H]2CC[C@]2(C)[C@@H](O)CC[C@@H]12 [2ME2, 2-Methoxyestradiol]
[1]
  anti-CD3/28 or PMA+iono-dependent proliferation: dose-dependent inhibition
[2]
  up-regulation of CD25: blocked up-regulation
  up-regulation of CD69: blocked up-regulation
[3]; 2ME2 50 μM, PMA/iono
  AKT phosphorylation: did not inhibit
  ERK phosphorylation: did not inhibit
  IκBα phosphorylation and degradation: normal
[3]; 2ME2 50 μM, present even in the absence of stimulation
  phosphorylation of JNK 1 and 2: modest hyper-phosphorylation
[3]; [4]
  ERK phosphorylation: did not inhibit
  JNK phosphorylation: did not inhibit
  NF-κB p65 phosphorylation: did not inhibit
